# Data as given in article PMC4313117, “Elabela-Apelin Receptor Signaling Pathway is Functional in Mammalian Systems” (Scientific Reports, 2015).
# What was measured:
# mouse aortic rings = experiment: Vasorelaxation of U46619-contracted mouse aortic rings; parameters: species or system mouse (C57BL/6)
# Source text: Changes in tension were expressed as the percentage decrease in reference to precontraction tension. […] Values are means ± SEM. (n = 5–10). **p < 0.01, compared to aortas with endothelium at the same concentration points of the compound.
# Aortas were isolated from 8–10 weeks male wild-type C57BL/6 mice, cut into 3-mm rings and mounted in organ chambers (PowerLab, AD Instruments, CO, USA) in Kreb's buffer as described previously. The contractile response was elicited by vasoconstrictor U46619 (30 nM) to produce contraction. […] In some preparations, the endothelium was mechanically removed from denuded arteries by gentle rubbing off the intimal surface with a wooden stick.
# APJ = details: zebrafish studies; cited from earlier work
# Source text: ELA deficiency leads to severe defects in heart development and lymphogenesis. ...
# HUVECs = experiment: In vitro angiogenesis (tubular formation) assay in HUVECs; format: cell-based, human; details: for increase in number of branch points: HUVECs on Geltrex, counted after 10 hr; for increase in number of branch points / increase in tubular formation, APJ-overexpressing HUVECs: n = 5
# Source text: ELA is a secreted hormone and expressed in adult kidney and prostate, and may, therefore, circulate in blood. Since ELA is required for normal development of cardiovascular system, blood vessel could be a target of ELA action. Vascular tube formation assay is a well-used in vitro study to assess angiogenic factors and conditions in which vascular cells, [e.g. human umbilical vascular endothelial cells (HUVECs)], can form tube-like structures under pro-angiogenic conditions in culture wells coated with Geltrex containing extra-cellular matrix. The number of branch points is used as an indicator for the strength of angiogenic stimuli.
# Figure 4 Stimulation of tubule-like structure by ELA-APJ signaling. […] (B), Reverse transcription PCR of human APJ expression of HUVECs infected with APJ or APJ siRNA lentiviral constructs.
# Tubular formation assay for angiogenesis was conducted in 96-well plates which were coated with 50 μl of Geltrex (Life Technologies, A14133-02) and left for polymerization by incubation for 1 hr at 37°C. […] Quantification of the tubular formation was performed after 10 hr of culture by calculating the number of branching point formed in each well under an inverted phase contrast photomicroscope (Olympus IX50), as described.
# human saphenous vein = details: cited from earlier work
# [1] = tested on: vascular tone; blood pressure; details: cited from earlier work
# Experimental: The aortic rings were induced to contraction with vasoconstrictor U46619 (final concentration, 30 nM).
# [2] = tested on: mouse heart failure model of coronary artery ligation; details: cited from earlier work
# Source text: Apelin was considered the only endogenous ligand for APJ since isolation of the apelin peptide. Apelin is expressed in multiple tissues including adipose tissue, heart, vasculature, brain and kidney, whereas APJ is more broadly expressed in tissues such as heart, blood vessels and adipose tissue. […] At the receptor level, APJ is a GPCR coupled to Gi and/or Gq[15][16]. Activation of APJ results in biochemical responses i ... || Recently, the therapeutic potential of apelin as a reagent for heart failure has been increasingly recognized.
molecule,measurement,setting,value
CSCC[C@H](NC(=O)[C@@H](NC(=O)[C@H](CC(C)C)NC(=O)[C@H](CC(N)=O)NC(=O)[C@@H](NC(=O)[C@@H]1CCCN1C(=O)[C@H](CCCNC(=N)N)NC(=O)[C@@H](N)CCC(N)=O)C(C)C)[C@@H](C)O)C(=O)N[C@@H](CCCNC(=N)N)C(=O)N[C@@H](CCCNC(=N)N)C(=O)N[C@@H](CCCCN)C(=O)N[C@@H](CC(C)C)C(=O)N[C@@H](CCCNC(=N)N)C(=O)N[C@@H](CCCCN)C(=O)N[C@@H](Cc1c[nH]cn1)C(=O)N[C@@H](CC(N)=O)C(=O)N[C@H]1CSSC[C@@H](C(=O)N[C@@H](CCSC)C(=O)N2CCC[C@H]2C(=O)N[C@@H](CC(C)C)C(=O)N[C@@H](Cc2c[nH]cn2)C(=O)N[C@@H](CO)C(=O)N[C@@H](CCCNC(=N)N)C(=O)N[C@H](C(=O)N2CCC[C@H]2C(=O)N[C@@H](Cc2ccccc2)C(=O)N2CCC[C@H]2C(=O)O)C(C)C)NC(=O)[C@H](CCCNC(=N)N)NC(=O)[C@H](CCCNC(=N)N)NC(=O)[C@H](CCC(N)=O)NC(=O)[C@H](CC(C)C)NC1=O [ELA],relaxation with L-NAME pretreatment,"mouse aortic rings; 1 mM L-NAME for 30 min, then U46619, followed by ELA",No significant difference was observed between the L-NAME-treated and non-treated vessels
same,"maximum relaxation, endothelium-intact vessels","mouse aortic rings; U46619 30 nM precontraction, ELA 10^−9 to 10^−6 M cumulative, n = 5–10",73.7%
same,decrease in relaxation in denuded vs intact vessels,"mouse aortic rings; endothelium-denuded, ELA at corresponding concentrations, n = 5–10",~ 20%
same,binding and activation of APJ,APJ,binds and activates APJ
same,"tubular formation, APJ-knock down HUVECs","HUVECs; ELA 0.1 μM, APJ siRNA",not effective in inducing the formation of tubular structures
same,increase in number of branch points,HUVECs; ELA 0.1 μM,71.9%
same,"increase in tubular formation, APJ-overexpressing HUVECs","HUVECs; ELA 0.1 μM, compared to empty vector control cells with ELA",63.3%
same,"increase in tubular formation, APJ-overexpressing HUVECs","HUVECs; ELA 0.1 μM, compared to empty vector control cells without ELA",190.2%
same,increase in number of branch points,HUVECs; ELA 0.5 μM,222.8%
same,increase in number of branch points,HUVECs; ELA 1 μM,266.7%
CC(=O)OCC[N+](C)(C)C [acetylcholine],relaxation by acetylcholine (control of endothelium removal and NOS inhibition),mouse aortic rings; endothelium-denuded or L-NAME-treated arteries,inability of acetylcholine to relax the arteries
apelin,vasoconstriction,human saphenous vein,vasoconstriction is also noted in human saphenous vein
same,vascular tone,[1],relax vascular tone
same,vasodilatory effect,[1],a vasodilatory effect of apelin is reported
same,blood pressure,[1]; no ref number printed at this statement,lower blood pressure
same,vasoconstriction in denuded vessels,[1]; vessels denuded of endothelium,vasoconstriction is also noted
same,"cardiac protection, contractility, infarction size, stem cell mobilization",[2]; mouse heart failure model of coronary artery ligation,"have cardiac-protective effect and can increase heart contractility, reduce infarction size and promote cardiac stem cell mobilization to the infarct area"
same,cardioprotective effect,"[2]; various animal models, infusion",appears to have cardioprotective effect in various animal models
apelin-13,reduction of relaxing effect by removal of endothelium,"mouse aortic rings; apelin-13, denuded vs intact vessels, n = 5–10",48%
same,"relaxation, denuded vessels","mouse aortic rings; apelin-13, endothelium-denuded, U46619 30 nM precontraction, n = 5–10",31%
same,"maximum relaxation, endothelium-intact vessels","mouse aortic rings; apelin-13 at 10^−6 M, U46619 30 nM precontraction, n = 5–10",79%
